From ChEMBL document CHEMBL5725536, “Multiple kinase pathway inhibitors” (2017)

Legend:
[1] = target: Proto-oncogene tyrosine-protein kinase Src (Homo sapiens, UniProt P12931); test: (§1) Kinase Assays: A concentration of a drug that reduces the observed activity of an enzyme by 50%. An IC50 is not a true affinity constant and the specific value determined can vary depending on the particular assay used. Nonetheless the rank order of IC50 for a set of compounds will typically be similar from one assay to another. (The true affinity constant for an inhibitor binding to an enzyme, Ki, can of course also be used for the same purposes as described herein for IC50). With respect to the kinases that are targeted by the compounds disclosed herein, kinase activity can be assayed, without limitation, as consumption of ATP or as incorporation of phosphate into a substrate. For example, the assay used in Example 76 assesses consumption of ATP based on luminescent detection of ADP. As an alternate example, the assay used in Example 78 assesses incorporation of phosphate based on the radiologic detection of 33P-labeled artificial substrates. Myriad other kinase assays are known in the art many of which are commercially available either as a kit or a service and one of skill in the art will recognize their particular usefulness for generating IC50 data.
Sequence of Proto-oncogene tyrosine-protein kinase Src (P12931 2-536 limits assumed): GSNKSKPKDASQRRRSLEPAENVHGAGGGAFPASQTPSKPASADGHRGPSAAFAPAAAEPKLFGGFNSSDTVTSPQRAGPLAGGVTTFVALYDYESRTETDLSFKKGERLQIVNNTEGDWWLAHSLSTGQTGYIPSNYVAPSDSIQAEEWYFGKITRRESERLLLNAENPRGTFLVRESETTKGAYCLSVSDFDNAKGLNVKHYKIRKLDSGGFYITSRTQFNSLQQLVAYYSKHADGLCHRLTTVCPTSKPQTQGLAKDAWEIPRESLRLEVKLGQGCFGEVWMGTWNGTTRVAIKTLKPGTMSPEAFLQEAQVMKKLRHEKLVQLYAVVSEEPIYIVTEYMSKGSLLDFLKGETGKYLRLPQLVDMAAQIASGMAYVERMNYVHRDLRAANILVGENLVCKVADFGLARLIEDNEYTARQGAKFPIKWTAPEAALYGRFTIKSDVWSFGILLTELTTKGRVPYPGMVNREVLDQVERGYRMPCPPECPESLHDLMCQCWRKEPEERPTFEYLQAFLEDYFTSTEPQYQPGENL

[2] = target: Tyrosine-protein kinase Lyn (Homo sapiens, UniProt P07948); test: as §1
Sequence of Tyrosine-protein kinase Lyn (P07948 whole entry): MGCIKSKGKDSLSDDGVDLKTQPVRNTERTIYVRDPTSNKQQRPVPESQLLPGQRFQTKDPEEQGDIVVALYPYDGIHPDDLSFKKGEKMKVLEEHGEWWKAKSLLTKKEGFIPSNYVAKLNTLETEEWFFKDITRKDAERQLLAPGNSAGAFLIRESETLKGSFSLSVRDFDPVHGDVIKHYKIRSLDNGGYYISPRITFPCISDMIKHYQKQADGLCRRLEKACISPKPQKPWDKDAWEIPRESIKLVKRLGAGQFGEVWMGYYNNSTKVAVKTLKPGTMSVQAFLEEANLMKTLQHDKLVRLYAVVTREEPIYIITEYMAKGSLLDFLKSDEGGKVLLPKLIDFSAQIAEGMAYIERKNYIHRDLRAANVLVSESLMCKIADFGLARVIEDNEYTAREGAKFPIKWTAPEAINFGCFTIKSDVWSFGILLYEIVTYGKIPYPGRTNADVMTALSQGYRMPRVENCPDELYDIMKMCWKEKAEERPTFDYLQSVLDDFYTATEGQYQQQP

SMILES | IC50 [1] [µM] | IC50 [2] [µM]
CC(C)n1c(=O)c(-c2c(F)cccc2F)cc2cnc(Nc3ccc(F)cn3)cc21 | > 5 | > 5
CCN(CC)CCOc1ccc(Nc2cc3c(cn2)cc(C(C)C)c(=O)n3C)nc1 |  | > 5
